Consider eleven compounds from ChEMBL document CHEMBL5291721, “A preclinical secondary pharmacology resource illuminates target-adverse drug reaction associations of marketed drugs” (Nat Commun, 2023).

Bounds are passed on as bounds.

Test [1] concerns the target T1, Alpha-2A adrenergic receptor (Homo sapiens, UniProt P08913).
T1 sequence (P08913 whole entry): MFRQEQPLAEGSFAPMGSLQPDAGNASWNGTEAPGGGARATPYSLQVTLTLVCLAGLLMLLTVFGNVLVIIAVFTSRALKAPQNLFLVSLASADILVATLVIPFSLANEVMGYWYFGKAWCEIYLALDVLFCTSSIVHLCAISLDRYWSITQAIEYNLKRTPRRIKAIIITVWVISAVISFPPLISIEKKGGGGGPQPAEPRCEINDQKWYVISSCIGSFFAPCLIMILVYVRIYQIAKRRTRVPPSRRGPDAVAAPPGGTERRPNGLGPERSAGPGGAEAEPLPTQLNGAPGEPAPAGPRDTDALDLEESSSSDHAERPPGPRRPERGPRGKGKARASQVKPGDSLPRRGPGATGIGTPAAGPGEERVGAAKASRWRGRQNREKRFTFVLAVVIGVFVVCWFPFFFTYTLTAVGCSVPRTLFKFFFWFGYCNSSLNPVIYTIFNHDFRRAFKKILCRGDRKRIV
It counts as functional, cell-based.

The target of the next test is T2, B2 bradykinin receptor (Homo sapiens, UniProt P30411).
T2 sequence (P30411 whole entry): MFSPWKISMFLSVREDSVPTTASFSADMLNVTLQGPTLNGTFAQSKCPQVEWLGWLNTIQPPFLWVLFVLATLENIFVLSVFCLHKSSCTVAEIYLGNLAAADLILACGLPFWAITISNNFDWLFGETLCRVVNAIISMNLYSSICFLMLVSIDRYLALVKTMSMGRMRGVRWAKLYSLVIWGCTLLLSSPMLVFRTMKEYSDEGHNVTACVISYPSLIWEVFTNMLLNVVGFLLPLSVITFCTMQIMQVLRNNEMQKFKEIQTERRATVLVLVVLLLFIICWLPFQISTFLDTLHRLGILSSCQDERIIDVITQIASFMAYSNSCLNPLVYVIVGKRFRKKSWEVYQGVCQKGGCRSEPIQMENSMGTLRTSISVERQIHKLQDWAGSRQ

Test [2] addresses T3, Cannabinoid receptor 1 (Homo sapiens, UniProt P21554).
For test [3], the target named is Glutamate receptor ionotropic, NMDA 1 (Rattus norvegicus, UniProt P35439).
The target in the next test is Melanocortin receptor 4 (Homo sapiens, UniProt P32245).
Sequence of Melanocortin receptor 4 (P32245 whole entry): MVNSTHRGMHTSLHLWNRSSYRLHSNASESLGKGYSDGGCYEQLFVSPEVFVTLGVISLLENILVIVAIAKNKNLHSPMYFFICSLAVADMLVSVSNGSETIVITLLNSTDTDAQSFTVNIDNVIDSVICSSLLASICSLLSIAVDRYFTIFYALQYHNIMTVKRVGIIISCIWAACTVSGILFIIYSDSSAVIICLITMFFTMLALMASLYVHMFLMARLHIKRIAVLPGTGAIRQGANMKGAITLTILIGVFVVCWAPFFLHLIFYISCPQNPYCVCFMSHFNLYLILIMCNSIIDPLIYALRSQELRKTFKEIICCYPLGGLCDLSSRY
In a further test the target is Motilin receptor (Homo sapiens, UniProt O43193).
Sequence of Motilin receptor (O43193 whole entry): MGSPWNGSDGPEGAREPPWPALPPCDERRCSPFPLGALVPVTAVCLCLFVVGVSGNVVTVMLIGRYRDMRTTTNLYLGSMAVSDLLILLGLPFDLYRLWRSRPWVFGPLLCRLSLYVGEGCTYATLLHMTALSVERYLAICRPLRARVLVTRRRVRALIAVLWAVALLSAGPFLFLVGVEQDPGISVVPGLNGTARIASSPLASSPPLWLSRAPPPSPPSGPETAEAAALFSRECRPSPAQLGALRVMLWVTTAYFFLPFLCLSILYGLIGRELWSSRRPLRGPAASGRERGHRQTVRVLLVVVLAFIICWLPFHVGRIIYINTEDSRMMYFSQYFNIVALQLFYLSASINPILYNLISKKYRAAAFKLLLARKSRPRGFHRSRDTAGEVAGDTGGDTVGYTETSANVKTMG
Test [4] concerns the target T4, Progesterone receptor (Homo sapiens, UniProt P06401).
T4 sequence (P06401 whole entry): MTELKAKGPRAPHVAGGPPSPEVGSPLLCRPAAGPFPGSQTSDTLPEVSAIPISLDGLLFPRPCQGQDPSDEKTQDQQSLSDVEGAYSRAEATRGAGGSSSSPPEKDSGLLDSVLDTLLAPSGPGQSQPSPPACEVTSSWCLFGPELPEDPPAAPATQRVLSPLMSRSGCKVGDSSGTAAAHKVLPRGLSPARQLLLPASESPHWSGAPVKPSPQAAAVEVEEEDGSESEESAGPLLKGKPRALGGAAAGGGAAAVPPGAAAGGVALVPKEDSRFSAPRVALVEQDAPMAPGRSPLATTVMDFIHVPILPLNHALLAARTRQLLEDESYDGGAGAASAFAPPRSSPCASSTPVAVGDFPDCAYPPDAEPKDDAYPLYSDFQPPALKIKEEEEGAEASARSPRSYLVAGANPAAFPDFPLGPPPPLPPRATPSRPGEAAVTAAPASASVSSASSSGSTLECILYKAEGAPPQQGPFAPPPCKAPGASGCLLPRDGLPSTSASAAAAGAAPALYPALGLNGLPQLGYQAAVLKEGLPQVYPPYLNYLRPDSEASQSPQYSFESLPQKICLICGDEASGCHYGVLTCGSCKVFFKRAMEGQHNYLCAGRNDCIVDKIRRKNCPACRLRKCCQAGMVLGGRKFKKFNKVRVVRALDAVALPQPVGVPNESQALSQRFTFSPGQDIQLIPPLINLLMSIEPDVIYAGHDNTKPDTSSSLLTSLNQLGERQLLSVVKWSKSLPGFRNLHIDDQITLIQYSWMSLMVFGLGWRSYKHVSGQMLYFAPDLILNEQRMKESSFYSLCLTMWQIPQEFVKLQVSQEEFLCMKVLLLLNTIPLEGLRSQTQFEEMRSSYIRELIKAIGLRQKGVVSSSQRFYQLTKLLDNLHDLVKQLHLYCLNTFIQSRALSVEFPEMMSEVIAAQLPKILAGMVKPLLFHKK
It counts as functional.

The target of test [5] is T4, Progesterone receptor. It counts as functional. This is another data set of the same source.
The target of another test is T5, Thromboxane A2 receptor (Homo sapiens, UniProt P21731).
T5 sequence (P21731 whole entry): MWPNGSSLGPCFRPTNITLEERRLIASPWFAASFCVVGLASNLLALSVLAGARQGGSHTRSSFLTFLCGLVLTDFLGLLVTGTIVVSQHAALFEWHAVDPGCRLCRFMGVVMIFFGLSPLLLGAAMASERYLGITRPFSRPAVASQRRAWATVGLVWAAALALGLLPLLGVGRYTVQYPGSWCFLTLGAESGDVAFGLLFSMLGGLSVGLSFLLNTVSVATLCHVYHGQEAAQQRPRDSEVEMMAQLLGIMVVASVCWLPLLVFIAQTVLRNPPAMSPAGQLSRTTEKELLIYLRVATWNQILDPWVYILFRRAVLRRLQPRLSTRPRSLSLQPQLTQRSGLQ

In test [6] the target is Sodium-dependent dopamine transporter (Homo sapiens, UniProt Q01959).
Sequence of Sodium-dependent dopamine transporter (Q01959 whole entry): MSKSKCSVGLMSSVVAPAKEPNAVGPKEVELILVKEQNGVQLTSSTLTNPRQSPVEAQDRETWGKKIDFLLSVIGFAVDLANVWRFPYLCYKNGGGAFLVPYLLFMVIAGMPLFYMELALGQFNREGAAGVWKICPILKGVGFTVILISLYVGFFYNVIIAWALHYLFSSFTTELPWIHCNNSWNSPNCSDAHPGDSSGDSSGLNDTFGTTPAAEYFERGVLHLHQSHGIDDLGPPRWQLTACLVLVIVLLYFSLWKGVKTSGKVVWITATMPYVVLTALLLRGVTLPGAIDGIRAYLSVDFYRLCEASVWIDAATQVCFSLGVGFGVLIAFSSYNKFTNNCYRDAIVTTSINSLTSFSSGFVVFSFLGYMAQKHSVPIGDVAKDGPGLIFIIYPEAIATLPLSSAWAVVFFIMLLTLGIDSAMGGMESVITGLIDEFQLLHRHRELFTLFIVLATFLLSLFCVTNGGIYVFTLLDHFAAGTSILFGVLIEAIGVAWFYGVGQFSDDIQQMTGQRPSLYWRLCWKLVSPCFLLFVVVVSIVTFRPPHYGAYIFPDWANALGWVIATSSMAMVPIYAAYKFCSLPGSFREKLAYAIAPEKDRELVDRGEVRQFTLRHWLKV
The target in test [7] is T3, Cannabinoid receptor 1. It counts as functional, cell-based.
The target in test [8] is T6, 5-hydroxytryptamine receptor 1A (Homo sapiens, UniProt P08908).
T6 sequence (P08908 whole entry): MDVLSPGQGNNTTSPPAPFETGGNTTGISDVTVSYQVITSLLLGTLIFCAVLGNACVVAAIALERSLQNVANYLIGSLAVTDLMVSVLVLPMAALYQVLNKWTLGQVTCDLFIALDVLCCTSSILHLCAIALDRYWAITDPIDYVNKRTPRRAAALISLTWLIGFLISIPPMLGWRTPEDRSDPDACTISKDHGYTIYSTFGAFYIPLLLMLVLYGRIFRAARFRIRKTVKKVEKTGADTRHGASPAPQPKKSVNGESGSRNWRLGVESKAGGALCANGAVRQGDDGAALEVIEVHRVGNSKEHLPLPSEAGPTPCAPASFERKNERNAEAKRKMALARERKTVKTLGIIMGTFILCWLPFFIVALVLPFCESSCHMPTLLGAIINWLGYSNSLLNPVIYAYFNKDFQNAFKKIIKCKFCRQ
The test is classed as functional, cell-based.
Note: assay procedure not described here.

T3 sequence (P21554 whole entry): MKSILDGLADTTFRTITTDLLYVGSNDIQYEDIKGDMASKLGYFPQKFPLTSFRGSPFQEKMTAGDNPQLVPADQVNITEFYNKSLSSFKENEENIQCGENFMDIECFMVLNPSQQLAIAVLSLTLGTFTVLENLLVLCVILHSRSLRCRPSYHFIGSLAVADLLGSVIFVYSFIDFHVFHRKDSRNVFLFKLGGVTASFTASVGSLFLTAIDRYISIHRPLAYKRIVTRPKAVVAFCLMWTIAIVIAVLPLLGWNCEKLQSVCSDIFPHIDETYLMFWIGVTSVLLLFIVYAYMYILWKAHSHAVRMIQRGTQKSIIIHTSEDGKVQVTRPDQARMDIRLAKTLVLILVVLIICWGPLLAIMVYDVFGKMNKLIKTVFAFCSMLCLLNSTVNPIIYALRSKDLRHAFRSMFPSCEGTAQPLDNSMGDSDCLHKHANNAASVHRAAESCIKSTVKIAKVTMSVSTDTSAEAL

A word on the AC50: it is the midpoint of the concentration-response curve, whichever way the signal moves. As for `COc1ccc(CC2c3cc(OC)c(OC)cc3CC[N+]2(C)CCC(=O)OCCCCCOC(=O)CC[N+]2(C)CCc3cc(OC)c(OC)cc3C2Cc2ccc(OC)c(OC)c2)cc1OC` (stereo not drawn), the concentration at half-maximal activity (AC50) in test [1] is 3.6 µM; at B2 bradykinin receptor it was more than 30 µM; on Cannabinoid receptor 1 [2] it was more than 30 µM; in test [3] it was more than 30 µM; at Melanocortin receptor 4 it was more than 30 µM; at Motilin receptor, more than 30 µM. Besides, the AC50 (on Progesterone receptor [4]; on Progesterone receptor [5]; at Thromboxane A2 receptor; in [6]) was more than 30 µM throughout.

Consider `CCCN(CCC)C(=O)Cc1c(-c2ccc(Cl)cc2)nc2ccc(Cl)cn12` [ALPIDEM], for which the AC50 (in test [1]; at B2 bradykinin receptor; on Cannabinoid receptor 1 [2]; in [3]; on Melanocortin receptor 4; at Motilin receptor) was more than 30 µM throughout. Further, the AC50 (on Progesterone receptor [4]; on Progesterone receptor [5]; at Thromboxane A2 receptor; in [6]) was more than 30 µM in each case.

Take `COc1ccccc1OCCNCC(O)COc1cccc2[nH]c3ccccc3c12` (stereo not drawn) [CARVEDILOL]: the AC50 in test [1] was 3.09 µM; on B2 bradykinin receptor it was more than 30 µM; at Cannabinoid receptor 1 [7] it was more than 30 µM; at Cannabinoid receptor 1 [2] it was more than 10 µM; in test [3], 5.09 µM; on Melanocortin receptor 4 it was 29.9 µM. Moreover, the AC50 is 7.61 µM at Motilin receptor; more than 30 µM at Progesterone receptor [4]; more than 30 µM at Progesterone receptor [5]; more than 30 µM at Thromboxane A2 receptor; 4.53 µM in test [6].

Turning to `O=C1CCc2cc(OCCCCc3nnnn3C3CCCCC3)ccc2N1` [CILOSTAZOL], the AC50 in test [1] was more than 30 µM; at B2 bradykinin receptor, more than 30 µM; at Cannabinoid receptor 1 [7], more than 30 µM; on Cannabinoid receptor 1 [2], more than 10 µM; in [3], more than 30 µM; on Melanocortin receptor 4, more than 30 µM. For the same compound, the AC50 (on Motilin receptor; on Progesterone receptor [4]; on Progesterone receptor [5]; at Thromboxane A2 receptor; in test [6]) was more than 30 µM throughout.

For the compound `C[C@H]1c2cccc(O)c2C(=O)C2=C(O)[C@]3(O)C(=O)C(C(N)=O)=C(O)[C@@H](N(C)C)[C@@H]3[C@@H](O)[C@@H]21` [DOXYCYCLINE], the AC50 in test [1] was more than 10 µM; at B2 bradykinin receptor, more than 30 µM; at Cannabinoid receptor 1 [7], more than 30 µM; at Cannabinoid receptor 1 [2] it was more than 10 µM; in test [3], more than 10 µM; in test [8], more than 10 µM. Also, the AC50 was more than 30 µM on Melanocortin receptor 4, more than 10 µM at Motilin receptor, more than 30 µM on Thromboxane A2 receptor and more than 10 µM in test [6].

As to `CC(C)Cc1ccc(C(C)C(=O)O)cc1` (stereo not drawn) [IBUPROFEN], the AC50 is more than 10 µM in [1]; more than 30 µM on B2 bradykinin receptor; more than 30 µM on Cannabinoid receptor 1 [7]; more than 10 µM at Cannabinoid receptor 1 [2]; more than 10 µM in test [3]; more than 10 µM in test [8]. Also, the AC50 on Melanocortin receptor 4 was more than 30 µM; on Motilin receptor, more than 10 µM; on Thromboxane A2 receptor it was more than 30 µM; in test [6], more than 30 µM.

Take `C=C[C@H]1C[N@@]2CC[C@H]1C[C@@H]2[C@@H](O)c1ccnc2ccc(OC)cc12` [QUINIDINE]: the AC50 in test [1] was 12 µM; at B2 bradykinin receptor it was more than 30 µM; at Cannabinoid receptor 1 [7], more than 30 µM; at Cannabinoid receptor 1 [2], more than 10 µM; in [3] it was more than 10 µM; at Melanocortin receptor 4, more than 30 µM. In addition, the figures for the AC50 (on Motilin receptor; in [6]) were more than 10 µM and 9.56 µM, respectively.

As to `CN(C)CCc1c[nH]c2ccc(Cn3cncn3)cc12` [RIZATRIPTAN], the AC50 in test [1] is more than 30 µM; on B2 bradykinin receptor, more than 30 µM; on Cannabinoid receptor 1 [7] it was more than 30 µM; on Cannabinoid receptor 1 [2], more than 10 µM; in test [3], more than 30 µM; at Melanocortin receptor 4 it was more than 30 µM. The results for the AC50 (on Motilin receptor; at Thromboxane A2 receptor; in test [6]) were more than 10 µM, more than 30 µM and more than 10 µM, respectively.

As to `Nc1ccc(S(=O)(=O)Nc2nccs2)cc1` [SULFATHIAZOLE], the AC50 is more than 10 µM in test [1]; more than 30 µM on B2 bradykinin receptor; more than 30 µM on Cannabinoid receptor 1 [7]; more than 10 µM at Cannabinoid receptor 1 [2]; more than 10 µM in test [3]; more than 10 µM in test [8]. The AC50 at Melanocortin receptor 4 is more than 30 µM; on Motilin receptor, more than 10 µM; on Thromboxane A2 receptor, more than 30 µM; in test [6] it was more than 10 µM.

`COc1cc2nc(N3CCN(C(=O)C4CCCO4)CC3)nc(N)c2cc1OC` (stereo not drawn) [TERAZOSIN]: the AC50 was more than 30 µM in [1]; more than 30 µM at B2 bradykinin receptor; more than 30 µM at Cannabinoid receptor 1 [7]; more than 10 µM at Cannabinoid receptor 1 [2]; more than 10 µM in test [3]; more than 10 µM in test [8]. Further, the AC50 was more than 30 µM on Melanocortin receptor 4, more than 10 µM on Motilin receptor, more than 30 µM on Thromboxane A2 receptor and more than 10 µM in test [6].

Consider `CCCC(CCC)C(=O)O` [VALPROIC ACID], for which the AC50 is more than 10 µM in test [1]; more than 30 µM at B2 bradykinin receptor; more than 10 µM at Cannabinoid receptor 1 [2]; more than 10 µM in [3]; more than 10 µM in test [8]; more than 30 µM on Melanocortin receptor 4. For the same compound, the AC50 on Motilin receptor is more than 10 µM; on Thromboxane A2 receptor, more than 30 µM; in test [6], 4.97 µM.
